Where a name gives a salt, the structure may show the parent alone.
Columns and labels:
[1] = In vitro release, USP dissolution apparatus 2, simulated gastric fluid pH 1.2; type: physicochemical; conditions: for Dissolution from PC90C10P0 in simulated gastric acid solution: within 0.5 h / plateau at 0.5 h, CPT11 40 mg/g, inhibitors 80 mg/g
Experimental: The temperature of the dissolution medium was maintained at 37 ± 0.5 °C. Aliquots of 5 mL of sample were withdrawn for the assay at predetermined time intervals and replaced with the same volume of fresh medium.

[2] = Droplet size, PDI and appearance of nanoemulsions (LBSNENAs) after self-nanoemulsifying; type: physicochemical; conditions: PC90C10P0 loaded with the named substance at its solubility; 25 °C
Experimental: After self-nanoemulsifying LBSNENPs were placed in double-distilled (DD) water, the average particle size and size distribution of the so-obtained LBSNENAs were measured at a scattering angle of 90° with an N5 submicron particle size analyzer (Beckman Coulter, Brea, CA) at 25 °C, and the intensity autocorrelation of the sample was in a range of 5 × 10^4–10^6. The average diameter and polydispersity index (PDI) of three measurements were reported. […] Each data point is the mean of at least three individual trials.

[3] = Solubility (loading amount) in 1 g of optimal LBSNENP PC90C10P0
[4] = In vivo pharmacokinetic study in rabbits: plasma CPT11
Experimental: Plasma samples were stored at −80 °C before the high-performance liquid chromatographic (HPLC) analysis as described below. PK parameters are presented as the mean and standard deviation (SD) from individual rabbits in each group and were estimated through a noncompartmental analysis. The terminal elimination rate constant (Ke) was estimated from the slope of the log-linear phase of declining plasma concentrations of an […] versus time graph. The half-life (T1/2) was calculated using the following equation: T1/2 = ln2/Ke. The area under the concentration-time curve from beginning to the last time point (AUC0→last) was calculated using the trapezoidal method. Summation of AUC0→last and the concentration at the last measured point divided by Ke yielded AUC0→∞. Clearance (CL) was calculated by dividing the dose by AUC0→∞, and the volume of distribution (V) was determined by dividing CL by Ke. The absolute bioavailability (FAB) and relative bioavailability (FRB) were respectively calculated according to Equations (1) and (2), respectively (1) FAB=[AUC]poDIV/[AUC]IVDpo×100 where [AUC]po and [AUC]IV are the area under the plasma concentration curves (AUCs) after oral and intravenous administration. DIV and Dpo are the doses after […] administration, respectively. (2) FRB=[AUC]ADB/[AUC]BDA×100
where AUC for a LBSNENPs formulation [AUC]A and the AUC for the same drug in solution [AUC]B after oral administration were compared. DB and DA are the doses for solution and LBSNENPs formulation, respectively.
After centrifugation at 13,000 rpm for 30 min at 4 °C, 1.2 mL of ethyl acetate was collected, and then subjected to evaporation under N2 gas at 50 °C. The mobile phase (200 μL) was added to reconstitute the dried residual, vortexed for 5 min, and then centrifuged at 10^4 rpm and 25 °C for 3 min. The supernatant (180 µL) was collected, and 50 µL was injected into the HPLC system for analysis.

[5] = background statement, no reference given; cited from earlier work
[6] = New Zealand white, rabbit, in vivo, iv, 4 mg/kg

Compound	Dissolution from PC90C10P0 in simulated gastric acid solution with 1% Tween 80 ([1]; plateau at 0.5 h, 80 mg/g)	Dissolution from PC90C10P0 in simulated gastric acid solution [1]	Mean droplet size of nanoemulsion after self-nanoemulsifying [2] [nm]	PDI of nanoemulsion after self-nanoemulsifying [2]	Solubility (loading amount) in 1 g of PC90C10P0 [3] [mg/g]	FAB of CPT11 ([4]; I.V. (4 mg/kg), reference group) [%]	AUC(0-inf) [4, 6] [ng·h/mL]	AUC(0-t) [4, 6] [ng·h/mL]	Cmax [4, 6] [ng/mL]	Times more active than CPT11 [5]
O=c1cc(-c2ccccc2)oc2cc(O)c(O)c(O)c12 [BA, Baicalein]	not observed	appeared to be over saturated	171.0 ± 6.52	0.863 ± 0.087	80					
CCc1c2c(nc3ccc(OC(=O)N4CCC(N5CCCCC5)CC4)cc13)-c1cc3c(c(=O)n1C2)COC(=O)[C@]3(O)CC [CPT11, Irinotecan hydrochloride]		100%	157.3 ± 2.08	0.665 ± 0.020	40	100	287 ± 104	287 ± 104	341 ± 98.6	
CC1(C)[C@@H](O[C@H]2O[C@H](C(=O)O)[C@@H](O)[C@H](O)[C@H]2O[C@@H]2O[C@H](C(=O)O)[C@@H](O)[C@H](O)[C@H]2O)CC[C@]2(C)[C@H]3C(=O)C=C4[C@@H]5C[C@@](C)(C(=O)O)CC[C@]5(C)CC[C@@]4(C)[C@]3(C)CC[C@@H]12 [GA, glycyrrhizic acid]		100%	102.1 ± 0.67	0.602 ± 0.031	200					
CC1(C)[C@@H](O)CC[C@]2(C)[C@H]3C(=O)C=C4[C@@H]5C[C@@](C)(C(=O)O)CC[C@]5(C)CC[C@@]4(C)[C@]3(C)CC[C@@H]12 [GLA, glycyrrhetinic acid]		100%	143.5 ± 0.04	0.559 ± 0.063	80					
CCc1c2c(nc3ccc(O)cc13)-c1cc3c(c(=O)n1C2)COC(=O)[C@]3(O)CC [SN-38]										100–1000 times
silymarin [SM]					130					

Reference: publication PMC8525948 (Drug Delivery, 2021)
